# Reference: PMC5502072 (Investigational New Drugs, 2017)
# Entries after “also recorded” stand apart in the source; their conditions may differ. Like-named read-outs stand apart in the source and are kept apart here.
# How the values were obtained:
# [1] = test system: lung squamous cell carcinoma; urothelial carcinoma with FGFR3 alterations; settings: cited from earlier work
# [2] = test system: advanced solid tumors; settings: all responders had FGFR2 or FGFR3 translocations; cited from earlier work
# [3] = test system: advanced solid tumours; test: Preliminary antitumour efficacy (RECIST v1.1); type: in vivo, human
# Protocol: Tumour assessments were performed according to Response Evaluation Criteria in Solid Tumors version 1.1 (RECIST v1.1) at baseline, on day 21 of the first treatment cycle, then every 6 weeks after the start of treatment for 12 weeks, and thereafter every 12 weeks (±1 week) until discontinuation of study treatment or withdrawal of consent.
# [4] = test system: several tumour types; settings: cited from earlier work
# [5] = previously treated advanced/metastatic UC with FGFR3 alterations
# [6] = one patient with FGFR1-amplified squamous NSCLC, 80 mg bid
compound,measurement,setting,value
CCN1CCN(c2ccc(Nc3cc(N(C)C(=O)Nc4c(Cl)c(OC)cc(OC)c4Cl)ncn3)cc2)CC1 [BGJ398],Patients with PR,"[1]; lung squamous cell carcinoma, selected by FGFR amplification status",2/17
same,Complete response,[1]; [5],one unconfirmed complete response
same,Patients with PR,[1]; [5],8/25
COc1cc(OC)cc(N(CCNC(C)C)c2ccc3ncc(-c4cnn(C)c4)nc3c2)c1 [JNJ-42756493],Patients with PR,[2],4/23
AZD4547,Patients with stable disease (≥4 weeks' duration),[3]; Part A,70%
same,Patients with stable disease ≥4 weeks,[3]; Part A,21/30
same,Range of percentage change in the sum of the diameters of target lesions,[3]; Part A,–6.8% to 48.9
same,Median percentage change in the sum of the diameters of target lesions,[3]; Part A (25/30 patients),5.9%
same,Patients with stable disease (≥4 weeks' duration),"[3]; Part A, 40 mg bid",3 n
same,Patients with stable disease (≥4 weeks' duration),"[3]; Part A, 80 mg bid",3 n
same,Patients with stable disease (≥4 weeks' duration),"[3]; Part A, 120 mg bid",5 n
same,Patients with stable disease (≥4 weeks' duration),"[3]; Part A, 160 mg qd",10 n
same,Range of percentage change in the sum of the diameters of target lesions,[3]; Part B,–16.3% to 23.4
same,Median percentage change in the sum of the diameters of target lesions,[3]; Part B (all patients),3.0%
same,Patients continuing to experience stable disease at 10 weeks,"[3]; Part B, 80 mg bid",25.0%
same,Patients with stable disease ≥10 weeks,"[3]; Part B, 80 mg bid",1/4
same,Complete responses and partial responses (RECIST v1.1),[3]; Parts A and B,No complete or partial responses were observed; also recorded: not observed
same,Patients with stable disease,[4]; 4/21 additional patients,19%
same,Best response,[4]; [6],partial response
same,Duration of PR,[4]; [6],≥ 12 weeks
